Five compounds from ChEMBL document CHEMBL5726443, “Bicyclic sulfonamide compounds as sodium channel inhibitors” (2017) can be followed below.

In this assay the target is Sodium channel protein type 9 subunit alpha (Homo sapiens, UniProt Q15858). In words: Compound effects were measured on a partially inactivated state of the sodium channel. Cells were clamped to a holding potential yielding 20 to 50% inactivation. To elicit sodium current, channels were activated by pulsing to ⿿10 mV for 20 msec. This voltage protocol was repeated at a rate of 0.1 Hz throughout the experiment.
Sodium channel protein type 9 subunit alpha, sequence (Q15858 whole entry): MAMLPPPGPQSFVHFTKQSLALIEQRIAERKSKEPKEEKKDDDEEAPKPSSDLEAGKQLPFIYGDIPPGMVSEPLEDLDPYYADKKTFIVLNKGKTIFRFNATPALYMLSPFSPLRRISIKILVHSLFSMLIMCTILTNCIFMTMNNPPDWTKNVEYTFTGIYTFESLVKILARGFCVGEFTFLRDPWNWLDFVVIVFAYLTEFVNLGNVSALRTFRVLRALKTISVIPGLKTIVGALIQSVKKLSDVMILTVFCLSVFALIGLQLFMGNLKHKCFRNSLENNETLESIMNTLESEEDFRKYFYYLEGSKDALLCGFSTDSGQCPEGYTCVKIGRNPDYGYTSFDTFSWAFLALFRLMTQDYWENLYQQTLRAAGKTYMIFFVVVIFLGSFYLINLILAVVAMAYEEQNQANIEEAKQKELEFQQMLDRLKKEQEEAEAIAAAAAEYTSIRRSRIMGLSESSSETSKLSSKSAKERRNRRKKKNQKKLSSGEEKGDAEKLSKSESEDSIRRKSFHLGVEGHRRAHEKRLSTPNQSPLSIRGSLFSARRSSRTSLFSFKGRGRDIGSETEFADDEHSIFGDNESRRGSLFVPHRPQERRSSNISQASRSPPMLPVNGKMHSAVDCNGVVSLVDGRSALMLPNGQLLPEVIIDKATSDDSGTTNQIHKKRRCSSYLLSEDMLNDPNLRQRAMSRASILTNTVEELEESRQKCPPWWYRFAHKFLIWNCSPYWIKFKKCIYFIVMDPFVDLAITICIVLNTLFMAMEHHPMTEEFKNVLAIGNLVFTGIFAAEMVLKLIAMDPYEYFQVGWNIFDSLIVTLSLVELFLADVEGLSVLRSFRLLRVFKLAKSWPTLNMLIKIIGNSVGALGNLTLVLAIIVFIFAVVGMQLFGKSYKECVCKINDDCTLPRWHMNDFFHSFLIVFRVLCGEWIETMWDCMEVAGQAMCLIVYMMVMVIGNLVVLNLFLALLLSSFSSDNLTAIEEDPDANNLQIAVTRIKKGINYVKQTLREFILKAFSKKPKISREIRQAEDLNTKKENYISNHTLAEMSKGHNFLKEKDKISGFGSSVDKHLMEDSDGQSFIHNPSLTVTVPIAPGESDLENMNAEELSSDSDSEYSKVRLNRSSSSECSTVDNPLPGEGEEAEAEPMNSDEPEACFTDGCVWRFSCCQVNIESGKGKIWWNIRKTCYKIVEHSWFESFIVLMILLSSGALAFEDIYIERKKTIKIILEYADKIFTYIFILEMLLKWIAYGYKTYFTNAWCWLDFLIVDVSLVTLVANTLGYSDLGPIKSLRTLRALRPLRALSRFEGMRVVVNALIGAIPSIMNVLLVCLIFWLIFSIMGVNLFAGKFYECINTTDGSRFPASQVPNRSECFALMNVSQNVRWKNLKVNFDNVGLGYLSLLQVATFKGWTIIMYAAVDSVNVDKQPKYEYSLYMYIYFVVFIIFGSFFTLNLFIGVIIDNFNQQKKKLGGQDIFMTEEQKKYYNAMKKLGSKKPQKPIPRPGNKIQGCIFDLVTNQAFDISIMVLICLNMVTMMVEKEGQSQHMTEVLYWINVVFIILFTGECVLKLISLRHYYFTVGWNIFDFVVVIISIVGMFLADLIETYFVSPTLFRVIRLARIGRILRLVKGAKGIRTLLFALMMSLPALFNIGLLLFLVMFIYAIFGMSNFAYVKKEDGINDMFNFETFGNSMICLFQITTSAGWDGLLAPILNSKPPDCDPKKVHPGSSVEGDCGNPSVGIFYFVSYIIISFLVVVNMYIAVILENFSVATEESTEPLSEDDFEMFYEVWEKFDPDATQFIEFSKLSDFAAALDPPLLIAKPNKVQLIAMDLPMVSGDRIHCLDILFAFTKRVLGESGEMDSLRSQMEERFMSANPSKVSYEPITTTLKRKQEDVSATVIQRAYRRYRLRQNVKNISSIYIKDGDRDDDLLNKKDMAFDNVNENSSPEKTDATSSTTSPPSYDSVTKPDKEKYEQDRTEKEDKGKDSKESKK
Consider `COc1cc(-c2ccc(F)c(C)n2)c(C)cc1-c1ncnc2cc(S(=O)(=O)Nc3ccon3)ccc12`, for which it took 445 nM to reach half-maximal inhibition (IC50).

With `COc1cc(-c2ccc(F)c(Cl)c2)c(C#N)cc1-c1nccc2cc(S(=O)(=O)Nc3nncs3)ccc12`, the IC50 turned out to be 9.2 nM.

Compound `COc1cc(-c2ccc(Cl)c(F)c2)c(C#N)cc1-c1nccc2cc(S(=O)(=O)Nc3nncs3)ccc12` returned an IC50 of 18.6 nM.

`COc1cc(-c2cccc(Cl)c2)c(F)cc1-c1ncnc2cc(S(=O)(=O)Nc3ncc(F)cn3)ccc12` registered an IC50 of 107 nM.

For `COc1cc(-c2cccc(C(F)(F)F)c2)c(C)cc1-c1nccc2cc(S(=O)(=O)Nc3ccon3)ccc12`, inhibition was half-maximal at 60.9 nM (IC50).

Usually IC50 stands for the concentration at which inhibition is half-maximal. A higher IC50 goes with a need for much substance.
